Assays:
human MMPs = experiment: Affinity and selectivity profile toward panel of human MMPs; assay type: biochemical
Procedure: Human MMP-8, -9, -12 and -13 were produced in the laboratory. Other MMPs were purchased from R&D Systems (Minneapolis, MN). MMP inhibition assays were carried out as previously described. Pro-MMPs were pre-activated by p-aminophenylmercuric acetate following the method described by R&D Systems. Titration experiments were carried out to determine active enzyme concentration for each MMP prior to the assay. For each probe, the percentage of inhibition was determined from five different concentrations in triplicates, chosen to reach a range of 20–80% inhibition. Ki values were determined using the method proposed by Horovitz and Leviski[45].

[1] = Blood levels in apoE-/- mice; assay type: in vivo; conditions: mouse, whole blood, intravenous, 1 nmol, read-out: Blood level
Procedure: (§1) Fluorescent probes (one nmol in 100 μL saline) were administered through a jugular vein catheter under inhaled isoflurane anesthesia. Blood samples were collected at various time points after probe administration to monitor blood clearance. Animals were sacrificed at the indicated time points and various organs were harvested. Near-infrared fluorescence reflectance imaging was conducted using an IVIS Spectrum system (Caliper Life Science, Hopkinton, MA) with appropriate excitation (Ex) and emission (Em) filter sets (Ex/Em = 675/720 nm for probe 1 and Ex/Em = 745/800 nm for probes 3 and 4). Fluorescence from 10 μL of blood was converted to % injected dose per gram (% ID/g) using a standard curve derived from serial dilutions of each probe in 10 μL of mouse blood. Tissue fluorescence was quantified as mean efficiency per pixel and was presented as an arbitrary unit (AU) relative to the signal from each probe in 10 μL of mouse blood.

MMP-12 active form [2] = molecular target: T1, MMP-12 active form (Mus musculus, UniProt P34960); experiment: Sponge model of sterile inflammation, fluorescence imaging of explanted sponges; assay type: in vivo, C57BL/6 mice; set-up: from tissue; host or cells: subcutaneously implanted polyvinyl alcohol sponges in C57BL/6 mice; conditions: 60 minutes after intravenous administration, 1 nmol
Procedure: Sponge model of sterile inflammation: Pieces of polyvinyl alcohol sponge (Ivalon Ear Wick, 0.9 e × 15 mm, New London, CT) were implanted in dorsal subcutaneous pockets of C57BL/6 mice (originally from Jackson Laboratory, Farmington, CT, n = 24) under isoflurane anesthesia, as described. Animals were re-anesthetized at day 1 or 4 after sponge implantation, and the sponges were removed for imaging or embedded in OCT, snap-frozen, and stored at −80 °C for further analysis.
as §1, with “Animals were sacrificed at the indicated time points and various organs were harvested.” left out

MMP-12 active form [3] = molecular target: T1, MMP-12 active form; experiment: MMP-12 imaging of carotid aneurysm; assay type: in vivo; set-up: from tissue; host or cells: CaCl2-induced aneurysmal left carotid artery of apoE-deficient mice (in vivo imaging and cryostat sections); conditions: high fat-fed apoE-/- mice, tissues harvested at 60 minutes after intravenous administration
Procedure: Carotid aneurysm model: Arterial aneurysm was induced over a 4-week period by exposing the left common carotid artery of apolipoprotein E–deficient (apoE^−/−, n = 7) mice (Jackson Laboratory) to calcium chloride, as described. The opposite carotid artery was exposed to normal saline and served as control for imaging studies. Tissues from a previous study (n = 3)[18] supplemented histologic evaluations.
as §1

Stability in PBS = assay type: physicochemical
Procedure: Probes 1, 2, 3 and control probe 4 were synthesized from phosphinic building blocks whose synthesis was previously reported. Briefly, the elongation of the peptide’s sequence as well as the incorporation of the phosphinic building blocks were performed on solid support using a standard Fmoc strategy. After cleavage from the support, pseudo peptide intermediates were purified and subsequently engaged in a coupling reaction with the appropriate dye-NHS ester. The identity and purity of each optical probe were confirmed by analytical HPLC, mass spectrometry analysis and NMR (for detailed protocols and analytical data see supplemental information). The stability of each probe was confirmed in phosphate buffered saline (PBS). Moreover, the stability of probe 3 and its control, probe 4 were evaluated by HPLC in mouse blood over a period of 4 hours at 37 °C.

[4] = Blood clearance and biodistribution after intravenous administration in wild type mice; assay type: in vivo; conditions: 1 nmol intravenous, 30 and 60 minutes, compared to probe 1
Procedure: as §1

T1 sequence (P34960 110-473): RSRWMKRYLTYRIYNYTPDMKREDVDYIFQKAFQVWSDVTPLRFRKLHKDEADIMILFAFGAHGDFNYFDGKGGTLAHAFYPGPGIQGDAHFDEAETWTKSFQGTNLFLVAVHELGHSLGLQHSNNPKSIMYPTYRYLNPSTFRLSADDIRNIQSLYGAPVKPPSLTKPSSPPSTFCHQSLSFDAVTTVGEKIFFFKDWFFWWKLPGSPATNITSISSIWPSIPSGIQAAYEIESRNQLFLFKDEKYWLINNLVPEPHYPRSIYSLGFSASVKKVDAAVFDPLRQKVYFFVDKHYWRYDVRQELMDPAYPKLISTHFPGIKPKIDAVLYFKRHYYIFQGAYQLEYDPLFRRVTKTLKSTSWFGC

SMILES: CC1(C)C(=CC=C2CCCC(C=CC3=[N+](CCC[N+](C)(C)C)c4ccc(S(=O)(=O)[O-])cc4C3(C)C)=C2Oc2ccc(CCC(=O)NCCCOCCOCCOCCCNC(=O)C(CCC(=O)[O-])NC(=O)C(CCC(=O)O)NC(=O)C(Cc3cc(-c4cccc(Oc5ccccc5)c4)no3)CP(=O)(O)c3ccc(Br)cc3)cc2)N(CCC[N+](C)(C)C)c2ccc(S(=O)(=O)[O-])cc21 (centres unmarked) [probe 4]
- affinity for human MMPs (human MMPs): no affinity
- tissue uptake at 30 min [1]: 2.4 ± 0.3 %ID/g
- tissue uptake at 60 min [1]: 2 ± 0.2 %ID/g
- fluorescence signal in explanted sponges (MMP-12 active form [2]): significantly lower
- fluorescence signal in aneurysmal left carotid artery (MMP-12 active form [3]): significantly lower signal

SMILES: CC1(C)C(/C=C/C2=C(Oc3ccc(CCC(=O)NCCCOCCOCCOCCCNC(=O)[C@H](CCC(=O)[O-])NC(=O)[C@H](CCC(=O)O)NC(=O)[C@H](Cc4cc(-c5ccc(-c6cccc(Cl)c6)cc5)no4)CP(=O)(O)c4ccc(Br)cc4)cc3)C(=C/C=C3/N(CCC[N+](C)(C)C)c4ccc(S(=O)(=O)[O-])cc4C3(C)C)/CCC2)=[N+](CCC[N+](C)(C)C)c2ccc(S(=O)(=O)[O-])cc21 [probe 3]
- stability in PBS (Stability in PBS): fully stable
- residual blood level [4]: significantly lower residual blood level
- tissue uptake at 30 min [1]: 2.7 ± 0.1 %ID/g
- tissue uptake at 60 min [1]: 2.3 ± 0.3 %ID/g
- fluorescence signal in explanted sponges (MMP-12 active form [2]): intense signal
- fluorescence signal in aneurysmal left carotid artery (MMP-12 active form [3]): significantly higher than the signal in the control, contralateral artery

Reference: publication PMC5137160, “Optical imaging of MMP-12 active form in inflammation and aneurysm” (Scientific Reports, 2016)
